Source: US6410575B1, “Viral treatment” (The Procter & Gamble Company, priority 1999, dated 2002)

Assays:
[1] = molecular target: HIV-1 integrase (Human immunodeficiency virus type 1 group M subtype B, UniProt P04585); test: Integrase inhibition assay (autoradiography); assay type: biochemical
Description: A biochemical integrase assay described by Craigie et at (HIV, vol. 2: A practical Approach) Biochemistry, Molecular Biology and Drug Discovery, Ed. J. Kam 1995) to screen agents for their ability to inhibit HIV-1 integrase can be used. In this system, a kinased oligonucleotide serves as the target of 3′ processing and the subsequent strand transfer reaction. The 3′ processing reaction involves the removal of 2 nucleotides from the 3′ ends of the substrate. This is followed by the strand transfer reaction in which the 3′ ends are joined to the exposed 5′ ends. The 20 μl reaction mixture contains 25 mM MOPS (pH 7.2), […] BSA, 10 mM β-mercaptoethanol, 10% glycerol; 7.5 mM MnCl2, 25 nM (7 ng) substrate (Oligo's Etc., Wilsonville, Oreg.) and 200 nM (128 ng) integrase (NIAID AIDS Research and Reference Reagent Program, Bethesda, Md.). The reaction proceeds at 37° C. for 1-2 hours and is terminated by the addition of 20 μl of sequencing stop solution (USB Amersham, Arlington Heights, Ill.). The reaction products are visualized by autoradiography following electrophoresis in 15% polyacrylamide 6M Urea gel. The substrate migrates as a 30 mer, the product of 3′ processing migrates as an N-2 band and the strand transfer products migrate more slowly at various sizes larger than the substrate.
The mechanism of action of the (5-aryl-1,2,4-thiadiazol)-3-yl thiourea derivatives or (5-aryl-1,2,4-thiadizol)-3-yl urea derivatives is not known.

[2] = test system: U937JE225R, a protease resistant strain; test: Long term in vitro study, U937JE225R; assay type: cell-based, HIV
Description: (§1) Toxicity quantification involves the XTT-based evaluation. Assays were designed to characterize the long term effects of the compounds on virus production and to characterize the longer term effects of the compounds on virus production from chronically HIV infected cells.
(§2) CEM-SS cells chronically infected with HIV isolate, for example SKI (CEM-SKI) are cultured in RPMI1640 tissue culture medium supplemented with 10% fetal bovine serum and antibiotics. […] CEM-SKI or other infected cells with no added drug are used as the control cells.
(§3) Cells are allowed to grow to a density of approximately 1×10^6 cells/ml and are then passaged at a 1:10 dilution. […] The drug concentration in the flask is then increased two-fold and the cells maintained as above.
(§4) The cell populations contain integrated copies of the HIV genome and constitutively produce HIV at relatively high levels or are latently infected and only produce virus after stimulation with phorbol esters, tumor necrosis factor or IL6(U1 and ACH2). Reductions in virus products were observed when quantifying supernatant reverse transcriptase activity.
The results with U937JE225R cells was reported at weekly intervals.

[3] = test system: HIV-1 cell line, CEMIIIB; test: Long term in vitro study, CEMIIIB; assay type: cell-based
Description: as §1, §2, §3, §4
The results with CEMIIIB cells was reported at weekly intervals.
The CEMIIIB is a viral strain of the CEMSS cell line.

[4] = test system: U937KN1272, a protease resistant strain; test: Long term in vitro study, U937KN1272; assay type: cell-based, HIV
Description: as §1, §2, §3, §4
Similar results are obtained with U937KN1272, a protease resistant strain, reported below.

Q: Which results are given for NC(=S)Nc1nsc(-c2ccccc2)n1?
A: EC50 [1]: > 423 µM; activity as an integrase inhibitor [1]: did not show activity; remaining activity at 1 µg/mL ([1]; 1 μg/ml, read-out: HIV-1 integrase inhibition, % no drug control): 108%; remaining activity at 10 µg/mL ([1]; 10 μg/ml, read-out: HIV-1 integrase inhibition, % no drug control): 117%; remaining activity at 100 µg/mL ([1]; 100 μg/ml, read-out: HIV-1 integrase inhibition, % no drug control): 106%; remaining activity at 0.1 µg/mL ([1]; read-out: HIV-1 integrase inhibition, % no drug control): 98.8%; virus production (supernatant reverse transcriptase activity) ([2]; 7 μg/ml, day 4): 12165; virus production (supernatant reverse transcriptase activity) ([2]; 7 μg/ml, day 11): 9465; virus production (supernatant reverse transcriptase activity) ([2]; 7 μg/ml, day 18): 10341; virus production (supernatant reverse transcriptase activity) ([2]; 7 μg/ml, day 25): 9079; virus production (supernatant reverse transcriptase activity) ([2]; 7 μg/ml, day 32): 6797; virus production (supernatant reverse transcriptase activity) ([2]; 7 μg/ml, day 39): 9792; virus production (supernatant reverse transcriptase activity) ([2]; 7 μg/ml, day 46): 9915; virus production (supernatant reverse transcriptase activity) ([2]; 7 μg/ml, day 53): 1094; virus production (supernatant reverse transcriptase activity) ([2]; 15 μg/ml, day 4): 11151; virus production (supernatant reverse transcriptase activity) ([2]; 15 μg/ml, day 11): 9935; virus production (supernatant reverse transcriptase activity) ([2]; 15 μg/ml, day 18): 9738; virus production (supernatant reverse transcriptase activity) ([2]; 15 μg/ml, day 25): 7104; virus production (supernatant reverse transcriptase activity) ([2]; 15 μg/ml, day 32): 6426; virus production (supernatant reverse transcriptase activity) ([2]; 15 μg/ml, day 39): 10618; virus production (supernatant reverse transcriptase activity) ([2]; 15 μg/ml, day 46): 10471; virus production (supernatant reverse transcriptase activity) ([2]; 15 μg/ml, day 53): 9756; virus production (supernatant reverse transcriptase activity) ([2]; 30 μg/ml, day 4): 12033; virus production (supernatant reverse transcriptase activity) ([2]; 30 μg/ml, day 11): 9859; virus production (supernatant reverse transcriptase activity) ([2]; 30 μg/ml, day 18): 11874; virus production (supernatant reverse transcriptase activity) ([2]; 30 μg/ml, day 25): 5281; virus production (supernatant reverse transcriptase activity) ([2]; 30 μg/ml, day 32): 4154; virus production (supernatant reverse transcriptase activity) ([2]; 30 μg/ml, day 39): 5379; virus production (supernatant reverse transcriptase activity) ([2]; 30 μg/ml, day 46): 5239; virus production (supernatant reverse transcriptase activity) ([2]; 30 μg/ml, day 53): 4423; virus production (supernatant reverse transcriptase activity) ([3]; 7 μg/ml, day 4): 4849; virus production (supernatant reverse transcriptase activity) ([3]; 7 μg/ml, day 11): 6658; virus production (supernatant reverse transcriptase activity) ([3]; 7 μg/ml, day 18): 7078; virus production (supernatant reverse transcriptase activity) ([3]; 7 μg/ml, day 25): 5221; virus production (supernatant reverse transcriptase activity) ([3]; 7 μg/ml, day 32): 5329; virus production (supernatant reverse transcriptase activity) ([3]; 7 μg/ml, day 39): 7349; virus production (supernatant reverse transcriptase activity) ([3]; 7 μg/ml, day 46): 11262; virus production (supernatant reverse transcriptase activity) ([3]; 7 μg/ml, day 53): 11286; virus production (supernatant reverse transcriptase activity) ([3]; 15 μg/ml, day 4): 5078; virus production (supernatant reverse transcriptase activity) ([3]; 15 μg/ml, day 11): 5733; virus production (supernatant reverse transcriptase activity) ([3]; 15 μg/ml, day 18): 6057; virus production (supernatant reverse transcriptase activity) ([3]; 15 μg/ml, day 25): 4980; virus production (supernatant reverse transcriptase activity) ([3]; 15 μg/ml, day 32): 4273; virus production (supernatant reverse transcriptase activity) ([3]; 15 μg/ml, day 39): 6329; virus production (supernatant reverse transcriptase activity) ([3]; 15 μg/ml, day 46): 10361; virus production (supernatant reverse transcriptase activity) ([3]; 15 μg/ml, day 53): 9844; virus production (supernatant reverse transcriptase activity) ([3]; 30 μg/ml, day 4): 5251; virus production (supernatant reverse transcriptase activity) ([3]; 30 μg/ml, day 11): 6200; virus production (supernatant reverse transcriptase activity) ([3]; 30 μg/ml, day 18): 6952; virus production (supernatant reverse transcriptase activity) ([3]; 30 μg/ml, day 25): 4110; virus production (supernatant reverse transcriptase activity) ([3]; 30 μg/ml, day 32): 3337; virus production (supernatant reverse transcriptase activity) ([3]; 30 μg/ml, day 39): 4233; virus production (supernatant reverse transcriptase activity) ([3]; 30 μg/ml, day 46): 9238; virus production (supernatant reverse transcriptase activity) ([3]; 30 μg/ml, day 53): 3527; virus production (supernatant reverse transcriptase activity) ([4]; U937KN1272, 7 μg/ml, day 4): 119839; virus production (supernatant reverse transcriptase activity) ([4]; U937KN1272, 7 μg/ml, day 11): 78089; virus production (supernatant reverse transcriptase activity) ([4]; U937KN1272, 7 μg/ml, day 18): 74773; virus production (supernatant reverse transcriptase activity) ([4]; U937KN1272, 7 μg/ml, day 25): 78997; virus production (supernatant reverse transcriptase activity) ([4]; U937KN1272, 7 μg/ml, day 32): 31156; virus production (supernatant reverse transcriptase activity) ([4]; U937KN1272, 7 μg/ml, day 39): 41326; virus production (supernatant reverse transcriptase activity) ([4]; U937KN1272, 7 μg/ml, day 46): 31024; virus production (supernatant reverse transcriptase activity) ([4]; U937KN1272, 7 μg/ml, day 53): 31209; virus production (supernatant reverse transcriptase activity) ([4]; U937KN1272, 15 μg/ml, day 4): 103341; virus production (supernatant reverse transcriptase activity) ([4]; U937KN1272, 15 μg/ml, day 11): 80161; virus production (supernatant reverse transcriptase activity) ([4]; U937KN1272, 15 μg/ml, day 18): 73939; virus production (supernatant reverse transcriptase activity) ([4]; U937KN1272, 15 μg/ml, day 25): 74262; virus production (supernatant reverse transcriptase activity) ([4]; U937KN1272, 15 μg/ml, day 32): 26305; virus production (supernatant reverse transcriptase activity) ([4]; U937KN1272, 15 μg/ml, day 39): 28635; virus production (supernatant reverse transcriptase activity) ([4]; U937KN1272, 15 μg/ml, day 46): 18073; virus production (supernatant reverse transcriptase activity) ([4]; U937KN1272, 15 μg/ml, day 53): 22110; virus production (supernatant reverse transcriptase activity) ([4]; U937KN1272, 30 μg/ml, day 4): 114070; virus production (supernatant reverse transcriptase activity) ([4]; U937KN1272, 30 μg/ml, day 11): 89087; virus production (supernatant reverse transcriptase activity) ([4]; U937KN1272, 30 μg/ml, day 18): 72398; virus production (supernatant reverse transcriptase activity) ([4]; U937KN1272, 30 μg/ml, day 25): 38006; virus production (supernatant reverse transcriptase activity) ([4]; U937KN1272, 30 μg/ml, day 32): 6908; virus production (supernatant reverse transcriptase activity) ([4]; U937KN1272, 30 μg/ml, day 39): 14779; virus production (supernatant reverse transcriptase activity) ([4]; U937KN1272, 30 μg/ml, day 46): 5663; virus production (supernatant reverse transcriptase activity) ([4]; U937KN1272, 30 μg/ml, day 53): 10534
